Patent US6821927B1 (priority 1999, dated 2004)

Assay: log P determination by HPLC (EEC directive 79/831 Annex V. A8)
Format: physicochemical
[1] = HPLC, gradient method, acetonitrile/0.1% aqueous phosphoric acid

Compound: CON=C(C(=O)N(C)O)c1ccccc1Oc1ncnc(Oc2cc(Cl)ccc2Cl)c1F [Example 6]
- chromatographic logP [1]: 3.28

Compound: CON=C(C(=O)N(C)O)c1ccccc1Oc1ncnc(Oc2ccccc2C#N)c1F [Example 8]
- chromatographic logP [1]: 2.43

Compound: CON=C(C(=O)N(C)OC(C)=O)c1ccccc1Oc1ncnc(Oc2ccccc2Cl)c1F [Example 3, N-(Acetyloxy)-2-(2-{[6-(2-chlorophenoxy)-5-fluoro-4-pyrimidinyl]oxy}phenyl)-2-(methoxyimino)-N-methylacetamide]
- chromatographic logP (HPLC (gradient method)): 3.52

Compound: CON=C(C(=O)N(C)O)c1ccccc1Oc1ncnc(Oc2cccc(Cl)c2Cl)c1F [Example 7]
- chromatographic logP [1]: 3.22

Compound: CON=C(C(=O)N(C)O)c1ccccc1Oc1ncnc(Oc2ccccc2F)c1F [Example 4]
- chromatographic logP [1]: 2.66

Compound: CON=C(C(=O)OC)c1ccccc1Oc1ncnc(Oc2ccccc2Cl)c1F [Example (VI-1), Methyl 2-{2-[6-(2-chlorophenoxy)-5-fluoro-pyrimidin-4-yloxy]-phenyl}-2-methoxyiminoacetate]
- chromatographic logP (HPLC): 3.61

Compound: CON=C(C(=O)NO)c1ccccc1Oc1ncnc(Oc2ccccc2Cl)c1F [Example 2, 2-(2-{[6-(2-Chlorophenoxy)-5-fluoro-4-pyrimidinyl]oxy}phenyl)-N-hydroxy-2-(methoxyimino)-acetamide]
- chromatographic logP (HPLC): 2.56

Compound: CON=C(C(=O)N(C)O)c1ccccc1Oc1ncnc(Oc2cccc(Cl)c2C)c1F [Example 5]
- chromatographic logP [1]: 3.29

Compound: CON=C(C(=O)N(C)O)c1ccccc1Oc1ncnc(Oc2ccccc2Cl)c1F [Example 1]
- logP (HPLC): 2.82

Compound: CON=C(C(=O)N(C)OC)c1ccccc1Oc1ncnc(Oc2ccccc2Cl)c1F [Example 9]
- chromatographic logP [1]: 3.5
